Experimental data reported in patent US20220274979A1 (Bayer Pharma Aktiengesellschaft, priority 2018, published 2022).

Experiments:
[1] = molecular target: T1, hK-RasG12C - hSOS1 interaction (Homo sapiens, UniProt Q07889); test: Biochemical Assay 1: hK-RasG12C interaction assay with hSOS1 (HTRF); format: binding; conditions: for IC50: values expressed as IC50; for inhibition at 20 µM: read-out: Assay 1 (hKRAS, hSOS Interaction) activity (expressed as IC50, or as % inhibition at 20 μM)
T1 construct: hSOS1 (amino acid 564-1049); made in house; host or cells: E. coli BL21 (DE3)
T1 sequence (Q07889 with tags, fused parts or gaps): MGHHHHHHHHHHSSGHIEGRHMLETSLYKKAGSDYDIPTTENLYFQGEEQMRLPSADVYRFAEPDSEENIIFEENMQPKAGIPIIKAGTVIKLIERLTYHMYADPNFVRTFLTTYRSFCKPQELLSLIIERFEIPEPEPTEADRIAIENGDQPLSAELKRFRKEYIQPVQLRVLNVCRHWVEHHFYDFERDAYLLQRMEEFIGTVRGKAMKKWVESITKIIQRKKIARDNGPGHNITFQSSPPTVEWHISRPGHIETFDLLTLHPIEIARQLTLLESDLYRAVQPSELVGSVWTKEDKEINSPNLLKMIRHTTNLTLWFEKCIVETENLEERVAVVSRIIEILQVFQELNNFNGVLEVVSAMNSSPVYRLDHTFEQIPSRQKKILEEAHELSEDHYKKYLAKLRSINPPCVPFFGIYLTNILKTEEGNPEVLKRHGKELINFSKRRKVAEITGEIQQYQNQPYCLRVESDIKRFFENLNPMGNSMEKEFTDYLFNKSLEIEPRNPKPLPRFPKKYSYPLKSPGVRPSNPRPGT
Method in brief: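 HTRF signal between GST-hK-RasG12C (10 nM working solution, anti-GST-Eu) and His-hSOS1 (20 nM working solution, anti-6His-XL665) was read in HEPES pH 7.4 buffer with 10 mM EDTA, 1 mM DTT and 100 mM KF at 20 °C.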

[2] = molecular target: T2, Epidermal Growth Factor Receptor (EGFR) (Homo sapiens, UniProt P00533); test: EGFR kinase assay (TR-FRET); format: biochemical; conditions: 10 μM ATP; read-out: EGFR kinase inhibition IC50
T2 construct: purchased Sigma-Aldrich E3641
T2 sequence (P00533 25-1210): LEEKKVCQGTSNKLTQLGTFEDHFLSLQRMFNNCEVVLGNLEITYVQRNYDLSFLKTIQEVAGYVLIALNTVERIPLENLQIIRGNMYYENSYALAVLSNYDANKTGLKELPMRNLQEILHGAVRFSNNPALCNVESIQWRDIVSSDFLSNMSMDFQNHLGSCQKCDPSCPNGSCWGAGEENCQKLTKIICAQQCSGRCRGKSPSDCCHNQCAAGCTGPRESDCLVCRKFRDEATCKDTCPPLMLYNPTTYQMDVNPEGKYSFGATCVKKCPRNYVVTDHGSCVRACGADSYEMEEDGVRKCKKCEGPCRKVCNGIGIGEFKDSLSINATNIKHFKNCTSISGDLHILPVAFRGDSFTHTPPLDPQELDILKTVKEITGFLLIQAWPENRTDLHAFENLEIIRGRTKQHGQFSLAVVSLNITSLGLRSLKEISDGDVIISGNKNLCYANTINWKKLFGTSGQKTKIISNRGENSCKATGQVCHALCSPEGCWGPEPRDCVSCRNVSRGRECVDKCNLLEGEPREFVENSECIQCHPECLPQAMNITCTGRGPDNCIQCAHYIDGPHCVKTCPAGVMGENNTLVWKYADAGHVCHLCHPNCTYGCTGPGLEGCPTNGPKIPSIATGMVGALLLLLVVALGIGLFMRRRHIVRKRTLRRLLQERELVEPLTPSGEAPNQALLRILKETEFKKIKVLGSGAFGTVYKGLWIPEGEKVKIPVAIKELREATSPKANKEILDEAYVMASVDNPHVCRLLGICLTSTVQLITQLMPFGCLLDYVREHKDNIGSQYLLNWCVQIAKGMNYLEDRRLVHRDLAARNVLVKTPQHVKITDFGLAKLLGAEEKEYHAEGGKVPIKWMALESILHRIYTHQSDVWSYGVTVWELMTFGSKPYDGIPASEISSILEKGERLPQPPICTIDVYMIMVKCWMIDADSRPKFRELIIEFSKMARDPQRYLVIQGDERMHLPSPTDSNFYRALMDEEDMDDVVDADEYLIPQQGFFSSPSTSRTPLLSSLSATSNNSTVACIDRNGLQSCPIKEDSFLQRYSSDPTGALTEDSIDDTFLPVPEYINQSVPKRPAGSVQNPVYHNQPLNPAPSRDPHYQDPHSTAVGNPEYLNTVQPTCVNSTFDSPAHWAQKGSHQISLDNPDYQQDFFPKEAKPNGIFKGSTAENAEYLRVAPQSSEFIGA
Method in brief: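 EGFR purified from A431 cells pre-incubated 15 min with compound, then reacted 20 min at 22 °C with 10 μM ATP and 1 μM biotinylated peptide (final) in HEPES pH 7.0 with Mg2+/Mn2+. Phosphopeptide detected by TR-FRET (Tb anti-phosphotyrosine/streptavidin-XL665), 665/620 nm emission ratio.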

SMILES	IC50 [1] [nM]	IC50 [2] [µM]	inhibition at 20 µM [1] [%]
CCOc1cc2c(NC(C)c3ccc(-c4ccccc4CN(C)C)s3)nc(C)nc2cn1 (stereo not shown) [Example 63, N-[1-(5-{2-[(dimethylamino)methyl]phenyl}thiophen-2-yl)ethyl]-6-ethoxy-2-methylpyrido[3,4-d]pyrimidin-4-amine]	43.6	> 20	
Cc1nc(NC(C)c2ccc(-c3ccccc3CN(C)C)s2)c2cc(OCC3CC3)ncc2n1 (stereo not shown) [Example 73, 6-(cyclopropylmethoxy)-N-[1-(5-{2-[(dimethylamino)methyl]phenyl}thiophen-2-yl)ethyl]-2-methylpyrido[3,4-d]pyrimidin-4-amine]	95	> 20	
Cc1nc(NC(C)c2ccc(-c3ccccc3CN(C)C)s2)c2cc(C3CCN(C)C3=O)ncc2n1 (mixture of isomers) [Example 69, 3-(4-{[1-(5-{2-[(dimethylamino)methyl]phenyl}thiophen-2-yl)ethyl]amino}-2-methylpyrido[3,4-d]pyrimidin-6-yl)-1-methylpyrrolidin-2-one]	62.6	> 20	
COc1cc2c(NC(C)c3cccc4sccc34)nc(C)nc2cn1 (stereo not shown) [Example 4, N-[1-(1-benzothiophen-4-yl)ethyl]-6-methoxy-2-methylpyrido[3,4-d]pyrimidin-4-amine]	355	> 20	
CCOc1cc2c(N[C@H](C)c3cccc(Br)c3)nc(C)nc2cn1 [Example 5, N-[(1R)-1-(3-bromophenyl)ethyl]-6-ethoxy-2-methylpyrido[3,4-d]pyrimidin-4-amine]	491	> 20	
Cc1nc(N[C@H](C)c2cccc(Br)c2)c2cc(Oc3cccc(O)c3)ncc2n1 [Example 40, 3-[(4-{[(1R)-1-(3-bromophenyl)ethyl]amino}-2-methylpyrido[3,4-d]pyrimidin-6-yl)oxy]phenol]	13200	> 20	
CC(=O)NC1CCN(c2cc3c(N[C@H](C)c4cccc(Br)c4)nc(C)nc3cn2)C1 (mixture of isomers) [Example 42, N-[1-(4-{[(1R)-1-(3-bromophenyl)ethyl]amino}-2-methylpyrido[3,4-d]pyrimidin-6-yl)pyrrolidin-3-yl]acetamide]	187	> 20	
COc1cc2c(N[C@H](C)c3cccc(Br)c3)nc(C)nc2cn1 [Example 57, N-[(1R)-1-(3-bromophenyl)ethyl]-6-methoxy-2-methylpyrido[3,4-d]pyrimidin-4-amine]	1970	> 20	
Cc1nc(N[C@H](C)c2cccc(Br)c2)c2nc(N(C)C)ccc2n1 [Example 31]	17700	> 20	
CCOc1cc2c(N[C@H](C)c3cccc(Cl)c3)nc(C)nc2cn1 [Example 6]	393	> 20	
Cc1nc(N[C@H](C)c2cccc(Br)c2)c2cc(Oc3cccc(C4=NCCN4C)c3)ncc2n1 [Example 41, N-[(1R)-1-(3-bromophenyl)ethyl]-2-methyl-6-[3-(1-methyl-4,5-dihydro-1H-imidazol-2-yl)phenoxy]pyrido[3,4-d]pyrimidin-4-amine]	1600	> 20	
Cc1nc(N[C@H](C)c2cccc(Br)c2)c2nc(OCc3ccccc3)ncc2n1 [Example 20, 6-(benzyloxy)-N-[(1R)-1-(3-bromophenyl)ethyl]-2-methylpyrimido[5,4-d]pyrimidin-4-amine]		> 20	30
Cc1nc(NC(C)c2ccc(-c3ccccc3CN(C)C)s2)c2cc(NCCN3CCOCC3)ncc2n1 (stereo not shown) [Example 48]	38.8	> 20	
Cc1nc(NC(C)c2ccc(-c3ccccc3CN(C)C)s2)c2cc(N3CC(NS(=O)(=O)c4ccccc4)C3)ncc2n1 (stereo not shown) [Example 94, N-[1-(4-{[1-(5-{2-[(dimethylamino)methyl]phenyl}thiophen-2-yl)ethyl]amino}-2-methylpyrido[3,4-d]pyrimidin-6-yl)azetidin-3-yl]benzenesulfonamide]	57.2	> 20	
Cc1nc(N[C@H](C)c2cccc(Br)c2)c2cc(F)ncc2n1 [Example 34, N-[(1R)-1-(3-bromophenyl)ethyl]-6-fluoro-2-methylpyrido[3,4-d]pyrimidin-4-amine]		> 20	36.7
CC(=O)NCCNc1cc2c(NC(C)c3ccc(-c4ccccc4CN(C)C)s3)nc(C)nc2cn1 (stereo not shown) [Example 51, N-{2-[(4-{[1-(5-{2-[(dimethylamino)methyl]phenyl}thiophen-2-yl)ethyl]amino}-2-methylpyrido[3,4-d]pyrimidin-6-yl)amino]ethyl}acetamide]	32.9	> 20	
Cc1nc(NC(C)c2ccc(-c3ccccc3CN(C)C)s2)c2cc(NCCn3ccnc3)ncc2n1 (stereo not shown) [Example 56, N4-[1-(5-{2-[(dimethylamino)methyl]phenyl}-2-thienyl)ethyl]-N6-[2-(1H-imidazol-1-yl)ethyl]-2-methylpyrido[3,4-d]pyrimidine-4,6-diamine]	39.4	> 20	
Cc1nc(NC(C)c2ccc(-c3ccccc3CN(C)C)s2)c2cc(NCCn3cccn3)ncc2n1 (stereo not shown) [Example 54, N4-[1-(5-{2-[(dimethylamino)methyl]phenyl}-2-thienyl)ethyl]-2-methyl-N6-[2-(1H-pyrazol-1-yl)ethyl]pyrido[3,4-d]pyrimidine-4,6-diamine]	49.6	> 20	
Cc1nc(NC(C)c2ccc(-c3ccccc3CO)s2)c2cc(F)ncc2n1 (stereo not shown) [Example 68, [2-(5-{1-[(6-fluoro-2-methylpyrido[3,4-d]pyrimidin-4-yl)amino]ethyl}thiophen-2-yl)phenyl]methanol]		> 20	43.8
Cc1nc(NC(C)c2ccc(-c3ccccc3CN(C)C)s2)c2cc(OCCCO)ncc2n1 (stereo not shown) [Example 76, 3-[(4-{[1-(5-{2-[(dimethylamino)methyl]phenyl}thiophen-2-yl)ethyl]amino}-2-methylpyrido[3,4-d]pyrimidin-6-yl)oxy]propan-1-ol]	45.2	> 20	
CNCc1ccccc1-c1ccc(C(C)Nc2nc(C)nc3cnc(F)cc23)s1 (stereo not shown) [Example 36, 6-fluoro-2-methyl-N-[1-(5-{2-[(methylamino)methyl]phenyl}thiophen-2-yl)ethyl]pyrido[3,4-d]pyrimidin-4-amine]	9030	> 20	
Cc1nc(N[C@H](C)c2cccc(Br)c2)c2cc(N3CCN(Cc4cccnc4)CC3)ncc2n1 [Example 43, N-[(1R)-1-(3-bromophenyl)ethyl]-2-methyl-6-[4-(pyridin-3-ylmethyl)piperazin-1-yl]pyrido[3,4-d]pyrimidin-4-amine]	296	> 20	
COCCOc1ncc2nc(C)nc(N[C@H](C)c3cccc(Br)c3)c2n1 [Example 26, N-[(1R)-1-(3-bromophenyl)ethyl]-6-(2-methoxyethoxy)-2-methylpyrimido[5,4-d]pyrimidin-4-amine]	2750	> 20	
Cc1nc(NC(C)c2ccc(-c3ccccc3CN(C)C)s2)c2cc(OCCCN(C)C)ncc2n1 (stereo not shown) [Example 72, N-[1-(5-{2-[(dimethylamino)methyl]phenyl}thiophen-2-yl)ethyl]-6-[3-(dimethylamino)propoxy]-2-methylpyrido[3,4-d]pyrimidin-4-amine]	34.2	> 20	
COc1cc2c(NC(C)c3cccc4nn(C)cc34)nc(C)nc2cn1 (stereo not shown) [Example 17, 6-methoxy-2-methyl-N-[1-(2-methyl-2H-indazol-4-yl)ethyl]pyrido[3,4-d]pyrimidin-4-amine]	9190	> 20	
Cc1nc(N[C@H](C)c2cccc(Br)c2)c2nc(Oc3ccccc3)ccc2n1 [Example 32, N-[(1R)-1-(3-bromophenyl)ethyl]-2-methyl-6-phenoxypyrido[3,2-d]pyrimidin-4-amine]		> 20	22.4
Cc1nc(N[C@H](C)c2cccc(Br)c2)c2cc(OCCN(C)C)ncc2n1 [Example 78, N-[(1R)-1-(3-bromophenyl)ethyl]-6-[2-(dimethylamino)ethoxy]-2-methylpyrido[3,4-d]pyrimidin-4-amine]	1280	> 20	
Cc1nc(NC(C)c2ccc(-c3ccccc3CN(C)C)s2)c2cc(N3CC(NC(=O)Nc4ccccc4)C3)ncc2n1 (stereo not shown) [Example 96, 1-[1-(4-{[1-(5-{2-[(dimethylamino)methyl]phenyl}thiophen-2-yl)ethyl]amino}-2-methylpyrido[3,4-d]pyrimidin-6-yl)azetidin-3-yl]-3-phenylurea]	76.6	> 20	
Cc1nc(N[C@H](C)c2ccc(F)cc2)c2cc(OC(C)C)ncc2n1 [Example 15]	1480	> 20	
